Assay results as given in patent publication US20170166598A1, “HETEROARYL COMPOUNDS FOR KINASE INHIBITION” (ARIAD PHARMACEUTICALS, INC., priority 2014, published 2017).

Columns and labels:
Format in all cases: cell-based
[1] = biological target: T1, human EGFR exon 20 insertion NPG (H773_V774insNPG) (Homo sapiens, UniProt P00533, INS772GNP); test: Ba/F3-EGFR-Exon20-NPG cell anti-proliferative assay (CellTiter 96 MTS, 72 h); settings: Ba/F3-EGFR-Exon20-NPG cells
T1 construct: expressed in transfected cells; host or cells: Ba/F3 (murine pro-B) cells transduced with lentivirus from pLVX-IRES puro
Summary of the method: (§1)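 Ba/F3 cells made IL-3-independent by lentiviral EGFR exon 20 NPG or ASV insertion were exposed 72 h at 37 °C to 4-fold dilutions of compound (top 10,000 nM). Viability read by MTS tetrazolium conversion, absorbance 490 nm after 2 h.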

[2] = biological target: T2, human EGFR L858R and T790M double mutation (Homo sapiens, UniProt P00533, L858R/T790M); test: Ba/F3-EGFR L858R/T790M cell anti-proliferative assay (CellTiter 96 MTS, 72 h); settings: Ba/F3-EGFR L858R/T790M cells
T2 construct: expressed in transfected cells; host or cells: Ba/F3 (murine pro-B) cells transduced with lentivirus from pLVX-IRES puro
Protocol: An expression vector, pLVX-IRES puro (Clontech) coding for human EGFR L858R and T790M double mutation, was transfected into HEK293 cells by the Trans-Lentiviral ORF Packaging System (Thermo Scientific), to produce virus encoding EGFR L858R and T790M double mutations. Ba/F3 (DSMZ) cells maintained in RPMI 1640 medium supplemented with 10% fetal bovine serum, 200 μM L-glutamine/l 200 μg/mL penicillin/200 μg/mL streptomycin (Life Technology) and 10 ng/mL IL-3 (R&D system), were infected by EGFR L858R and T790M double mutation virus and subsequently selected by puromycin (Life Technology) selection and IL-3 depletion. […] The anti-proliferative activity of compounds was determined as follows: BaF3-EGFR L858R/T790M cells seeded in 96 well plates (2500 cells/well) were treated with test compound (dissolved in DMSO) at a series of concentrations (4-fold dilution, top concentration: 10,000 nM). The plates were incubated for 72 h in a 37° C. incubator with 5% CO2, and the number of viable cells in each well were measured indirectly by CellTiter 96® Aqueous One Solution Cell Proliferation Assay (Promega; this assay is a colorimetric method for determining the number of viable cells through measurement of their metabolic activity by detection of enzymatic conversion of tetrazolium salts into blue formazan derivatives). Reagent (20 μL) was added into each well, and the plates were returned to the incubator for 2 h. The absorbance in each well was then measured at 490 nm using an Envision plate reader (Perkin Elmer).

[3] = biological target: T3, human EGFR E746-A750 deletion and T790M Mutation (Homo sapiens, UniProt P00533, DEL746-750/T790M); test: Ba/F3-EGFR-Del/T790M cell anti-proliferative assay (CellTiter 96 MTS, 72 h); settings: Ba/F3-EGFR-Del/T790M cells
T3 construct: expressed in transfected cells; host or cells: Ba/F3 (murine pro-B) cells transduced with lentivirus from pLVX-IRES puro
Summary of the method: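 Ba/F3 cells made IL-3-independent by lentiviral human EGFR E746-A750 del/T790M, puromycin-selected. Cells treated 72 h at 37 °C with compound, 4-fold dilutions from 10,000 nM top concentration. Viability read by MTS tetrazolium-to-formazan conversion, absorbance at 490 nm after 2 h with reagent.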

[4] = biological target: T4, human EGFR exon 20 insertion ASV (V769_D770insASV) (Homo sapiens, UniProt P00533, INS769ASV); test: Ba/F3-EGFR-Exon20-ASV cell anti-proliferative assay (CellTiter 96 MTS, 72 h); settings: Ba/F3-EGFR-Exon20-ASV cells
T4 construct: expressed in transfected cells; host or cells: Ba/F3 (murine pro-B) cells transduced with lentivirus from pLVX-IRES puro
Summary of the method: as §1

[5] = biological target: T5, Her2 exon 20 YVMA insertion (A775_G776ins YVMA) (Homo sapiens, UniProt P04626, INS775YVMA); test: Ba/F3-Her2 Exon20 YVMA cell anti-proliferative assay (CellTiter 96 MTS, 72 h); settings: Ba/F3-Her2 Exon20 YVMA cells
T5 construct: expressed in transfected cells; host or cells: Ba/F3 (murine pro-B) cells transduced with lentivirus from pLVX-IRES puro
Summary of the method: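 IL-3-independent Ba/F3 cells transduced with the YVMA insertion were treated with compound in 4-fold dilutions from 10,000 nM top. After 72 h at 37° C, viable cells were quantified by MTS tetrazolium conversion, with absorbance read at 490 nm after 2 h.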

T3 sequence (P00533 with tags, fused parts or gaps DEL746-750/T790M): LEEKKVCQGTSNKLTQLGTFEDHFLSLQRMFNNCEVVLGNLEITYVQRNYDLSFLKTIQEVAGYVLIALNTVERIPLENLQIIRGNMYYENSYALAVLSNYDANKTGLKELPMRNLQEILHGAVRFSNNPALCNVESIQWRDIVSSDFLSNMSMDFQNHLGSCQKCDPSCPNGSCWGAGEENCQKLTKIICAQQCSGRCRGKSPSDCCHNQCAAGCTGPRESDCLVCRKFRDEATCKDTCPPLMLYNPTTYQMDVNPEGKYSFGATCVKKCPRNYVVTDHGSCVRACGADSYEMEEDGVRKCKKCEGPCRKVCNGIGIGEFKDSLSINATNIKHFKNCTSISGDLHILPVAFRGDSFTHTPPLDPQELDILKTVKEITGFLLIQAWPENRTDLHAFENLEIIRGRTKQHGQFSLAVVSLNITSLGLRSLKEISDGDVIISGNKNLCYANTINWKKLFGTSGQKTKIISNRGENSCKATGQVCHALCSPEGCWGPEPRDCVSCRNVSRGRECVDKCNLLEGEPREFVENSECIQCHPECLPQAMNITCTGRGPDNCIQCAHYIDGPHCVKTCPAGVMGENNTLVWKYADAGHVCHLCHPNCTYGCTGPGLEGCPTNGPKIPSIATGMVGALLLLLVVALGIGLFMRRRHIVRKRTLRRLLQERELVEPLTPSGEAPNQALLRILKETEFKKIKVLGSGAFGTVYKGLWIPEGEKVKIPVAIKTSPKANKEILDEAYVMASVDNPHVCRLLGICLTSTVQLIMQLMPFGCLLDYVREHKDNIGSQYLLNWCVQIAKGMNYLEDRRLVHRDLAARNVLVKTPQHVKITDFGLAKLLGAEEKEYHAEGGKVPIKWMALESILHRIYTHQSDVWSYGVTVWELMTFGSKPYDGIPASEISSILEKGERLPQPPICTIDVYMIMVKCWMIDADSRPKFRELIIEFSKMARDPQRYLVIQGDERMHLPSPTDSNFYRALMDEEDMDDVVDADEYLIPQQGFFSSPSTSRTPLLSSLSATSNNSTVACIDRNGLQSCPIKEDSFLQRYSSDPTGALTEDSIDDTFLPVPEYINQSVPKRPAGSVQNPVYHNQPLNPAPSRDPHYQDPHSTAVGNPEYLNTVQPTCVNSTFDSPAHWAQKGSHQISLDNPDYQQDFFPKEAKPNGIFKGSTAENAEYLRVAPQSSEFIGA
T1 sequence (P00533 with tags, fused parts or gaps INS772GNP): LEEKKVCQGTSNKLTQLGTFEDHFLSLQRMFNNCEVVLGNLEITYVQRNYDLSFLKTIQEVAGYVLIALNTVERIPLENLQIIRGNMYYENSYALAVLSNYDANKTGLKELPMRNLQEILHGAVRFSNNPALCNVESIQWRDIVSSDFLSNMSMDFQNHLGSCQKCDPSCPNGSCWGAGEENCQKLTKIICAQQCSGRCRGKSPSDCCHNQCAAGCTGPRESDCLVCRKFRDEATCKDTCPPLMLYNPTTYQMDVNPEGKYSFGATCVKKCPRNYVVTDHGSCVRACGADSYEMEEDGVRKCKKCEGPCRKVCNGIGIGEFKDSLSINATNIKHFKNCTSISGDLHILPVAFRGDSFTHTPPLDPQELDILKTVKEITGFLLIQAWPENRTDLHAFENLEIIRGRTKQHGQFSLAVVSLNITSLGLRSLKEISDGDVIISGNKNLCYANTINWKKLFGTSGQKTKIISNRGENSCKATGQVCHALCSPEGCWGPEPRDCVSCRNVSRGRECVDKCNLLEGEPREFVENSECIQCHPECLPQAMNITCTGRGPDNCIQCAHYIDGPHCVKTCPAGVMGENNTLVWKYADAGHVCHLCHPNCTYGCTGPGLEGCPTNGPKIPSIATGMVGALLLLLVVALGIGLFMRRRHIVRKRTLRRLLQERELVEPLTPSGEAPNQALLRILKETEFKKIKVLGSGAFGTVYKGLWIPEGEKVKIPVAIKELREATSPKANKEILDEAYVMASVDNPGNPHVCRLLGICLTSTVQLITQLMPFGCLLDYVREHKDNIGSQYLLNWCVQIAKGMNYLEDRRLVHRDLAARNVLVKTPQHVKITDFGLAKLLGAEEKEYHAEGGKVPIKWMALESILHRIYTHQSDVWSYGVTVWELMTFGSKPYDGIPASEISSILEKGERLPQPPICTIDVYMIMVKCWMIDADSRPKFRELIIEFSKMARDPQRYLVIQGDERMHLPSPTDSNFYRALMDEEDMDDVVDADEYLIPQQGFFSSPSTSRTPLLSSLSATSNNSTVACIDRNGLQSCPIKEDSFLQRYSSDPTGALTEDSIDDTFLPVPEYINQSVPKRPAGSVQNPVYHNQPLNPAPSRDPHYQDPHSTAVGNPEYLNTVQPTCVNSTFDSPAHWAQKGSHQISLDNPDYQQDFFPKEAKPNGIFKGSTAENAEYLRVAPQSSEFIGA
T5 sequence (P04626 with tags, fused parts or gaps INS775YVMA): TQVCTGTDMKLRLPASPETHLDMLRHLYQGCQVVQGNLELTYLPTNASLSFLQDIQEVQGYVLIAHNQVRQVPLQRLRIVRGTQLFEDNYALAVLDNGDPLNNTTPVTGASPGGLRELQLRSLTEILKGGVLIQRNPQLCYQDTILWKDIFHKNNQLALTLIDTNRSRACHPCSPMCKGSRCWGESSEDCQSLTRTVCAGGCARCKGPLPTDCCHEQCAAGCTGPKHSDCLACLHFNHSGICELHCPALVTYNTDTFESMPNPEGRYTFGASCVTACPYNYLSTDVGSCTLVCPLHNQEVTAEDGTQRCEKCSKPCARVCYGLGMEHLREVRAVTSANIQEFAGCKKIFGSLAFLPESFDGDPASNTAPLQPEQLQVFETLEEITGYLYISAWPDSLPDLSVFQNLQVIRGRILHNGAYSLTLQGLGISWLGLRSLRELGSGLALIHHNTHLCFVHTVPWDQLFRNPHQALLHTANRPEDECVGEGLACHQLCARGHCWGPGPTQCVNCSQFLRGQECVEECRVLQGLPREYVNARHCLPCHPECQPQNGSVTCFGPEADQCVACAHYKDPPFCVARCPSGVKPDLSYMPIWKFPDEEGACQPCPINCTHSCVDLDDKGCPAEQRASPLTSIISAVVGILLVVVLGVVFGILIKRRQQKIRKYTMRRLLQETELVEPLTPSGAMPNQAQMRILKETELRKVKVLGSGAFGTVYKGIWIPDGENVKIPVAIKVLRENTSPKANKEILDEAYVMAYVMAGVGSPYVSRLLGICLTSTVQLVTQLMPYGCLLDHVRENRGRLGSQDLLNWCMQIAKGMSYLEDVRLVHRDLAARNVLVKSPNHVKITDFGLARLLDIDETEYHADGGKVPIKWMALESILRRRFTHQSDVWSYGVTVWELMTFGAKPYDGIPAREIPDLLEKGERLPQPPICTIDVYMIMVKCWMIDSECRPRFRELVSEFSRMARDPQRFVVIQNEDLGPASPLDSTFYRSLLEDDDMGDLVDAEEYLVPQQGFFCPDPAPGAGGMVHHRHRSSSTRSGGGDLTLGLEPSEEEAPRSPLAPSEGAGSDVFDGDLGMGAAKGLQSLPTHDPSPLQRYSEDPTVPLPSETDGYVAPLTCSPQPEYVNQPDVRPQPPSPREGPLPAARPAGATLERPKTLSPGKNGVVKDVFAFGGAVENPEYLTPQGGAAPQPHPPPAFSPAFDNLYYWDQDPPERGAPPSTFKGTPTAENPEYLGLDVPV
T2 sequence (P00533 25-1210 T790M/L858R): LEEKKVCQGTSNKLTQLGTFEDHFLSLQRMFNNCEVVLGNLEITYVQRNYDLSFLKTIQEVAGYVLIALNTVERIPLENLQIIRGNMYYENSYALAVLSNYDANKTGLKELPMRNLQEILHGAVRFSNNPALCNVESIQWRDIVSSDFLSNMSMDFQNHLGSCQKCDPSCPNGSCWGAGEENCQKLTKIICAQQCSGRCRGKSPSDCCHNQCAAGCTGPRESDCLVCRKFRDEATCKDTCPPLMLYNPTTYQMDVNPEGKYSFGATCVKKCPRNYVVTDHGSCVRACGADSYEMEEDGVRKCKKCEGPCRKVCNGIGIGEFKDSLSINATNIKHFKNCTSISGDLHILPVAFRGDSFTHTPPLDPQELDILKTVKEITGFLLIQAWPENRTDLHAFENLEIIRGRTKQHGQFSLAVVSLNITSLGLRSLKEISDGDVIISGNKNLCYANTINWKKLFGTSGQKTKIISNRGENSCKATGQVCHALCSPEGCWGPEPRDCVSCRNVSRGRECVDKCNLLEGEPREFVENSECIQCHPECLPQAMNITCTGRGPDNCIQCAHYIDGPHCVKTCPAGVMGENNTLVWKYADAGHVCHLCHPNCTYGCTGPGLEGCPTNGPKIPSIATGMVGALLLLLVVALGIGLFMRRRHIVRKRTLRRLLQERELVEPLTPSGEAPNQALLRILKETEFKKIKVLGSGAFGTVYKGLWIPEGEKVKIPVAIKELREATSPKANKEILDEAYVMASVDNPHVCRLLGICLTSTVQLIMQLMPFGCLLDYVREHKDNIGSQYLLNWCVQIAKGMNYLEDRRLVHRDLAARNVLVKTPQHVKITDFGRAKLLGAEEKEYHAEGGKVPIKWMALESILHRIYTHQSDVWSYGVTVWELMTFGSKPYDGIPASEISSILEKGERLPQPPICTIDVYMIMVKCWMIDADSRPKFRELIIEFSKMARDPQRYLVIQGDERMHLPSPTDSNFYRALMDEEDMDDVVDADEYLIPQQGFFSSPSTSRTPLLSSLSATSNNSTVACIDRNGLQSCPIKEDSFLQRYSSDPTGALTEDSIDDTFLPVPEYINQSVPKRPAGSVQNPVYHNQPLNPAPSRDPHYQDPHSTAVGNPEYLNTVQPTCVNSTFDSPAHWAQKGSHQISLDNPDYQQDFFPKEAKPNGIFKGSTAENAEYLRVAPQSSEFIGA

Compound | IC50 [1] | EGFR exon 21 L858R and exon 20 T790M mutation IC50 [2] | EGFR exon 19 deletion and exon 20 T790M mutation IC50 [3] | IC50 [4] | IC50 [5]
C=CC(=O)Nc1cc(Nc2ncc(C#N)c(-c3cn4c5c(cccc35)CCC4)n2)c(OC)cc1N(C)CCN(C)C(C)C [Example 26, N-(5-((5-cyano-4-(5,6-dihydro-4H-pyrrolo[3,2,1-ij]quinolin-1-yl)pyrimidin-2-yl)amino)-2-((2-(isopropyl(methyl)amino)ethyl)(methyl)amino)-4-methoxyphenyl)acrylamide] | < 100 nM | A (IC50 value for the indicated mutant below about 100 nM) | A (IC50 value for the indicated mutant below about 100 nM) | < 100 nM | < 100 nM
C=CC(=O)Nc1cc(Nc2ncc(-c3ncc[nH]3)c(-c3cn4c5c(cccc35)CCC4)n2)c(OC)cc1N(C)CCN(C)C [Example 97] | 100 to 500 nM | C (IC50 value for the indicated mutant between greater than about 500 to about 1 μM) | B (IC50 value for the indicated mutant between about 100 to about 500 nM) | 100 to 500 nM | > 1000 nM
C=CC(=O)Nc1cc(Nc2ncc(C#N)c(-c3cn4c5c(cccc35)CCC4)n2)c(OC)cc1N(C)CCN(C)C [Example 14, N-(5-((5-cyano-4-(5,6-dihydro-4H-pyrrolo[3,2,1-ij]quinolin-1-yl)pyrimidin-2-yl)amino)-2-((2-(dimethylamino)ethyl)(methyl)amino)-4-methoxyphenyl)acrylamide] | > 1000 nM | A (IC50 value for the indicated mutant below about 100 nM) | A (IC50 value for the indicated mutant below about 100 nM) | < 100 nM | < 100 nM
C=CC(=O)Nc1cc(Nc2nccc(-c3cn4c5c(cccc35)CCC4)n2)c(OC)cc1N(C)CCN(C)C [Example 10, N-(5-((4-(5,6-dihydro-4H-pyrrolo[3,2,1-ij]quinolin-1-yl)pyrimidin-2-yl)amino)-2-((2-(dimethylamino)ethyl)(methyl)amino)-4-methoxyphenyl)acrylamide] | < 100 nM | A (IC50 value for the indicated mutant below about 100 nM) | A (IC50 value for the indicated mutant below about 100 nM) | 100 to 500 nM | 100 to 500 nM
C=CC(=O)Nc1cc(Nc2ncc(C#N)c(-c3cn4c5c(cccc35)OCC4)n2)c(OC)cc1N(C)CCN(C)C [Example 4, N-(5-((5-cyano-4-(2,3-dihydro-[1,4]oxazino[2,3,4-hi]indol-6-yl)pyrimidin-2-yl)amino)-2-((2-(dimethylamino)ethyl)(methyl)amino)-4-methoxyphenyl)acrylamide] | < 100 nM | A (IC50 value for the indicated mutant below about 100 nM) | A (IC50 value for the indicated mutant below about 100 nM) | < 100 nM | < 100 nM
C=CC(=O)Nc1cc(Nc2ncc(C#N)c(-c3cn4c5c(cccc35)CCC4)n2)c(OC)cc1N(C)CCNC [Example 84, N-(5-((5-cyano-4-(5,6-dihydro-4H-pyrrolo[3,2,1-ij]quinolin-1-yl)pyrimidin-2-yl)amino)-4-methoxy-2-(methyl(2-(methylamino)ethyl)amino)phenyl)acrylamide] | > 1000 nM | A (IC50 value for the indicated mutant below about 100 nM) | A (IC50 value for the indicated mutant below about 100 nM) | < 100 nM | < 100 nM
C=CC(=O)Nc1cc(Nc2ncc(CC)c(-c3cn4c5c(cccc35)OCC4)n2)c(OC)cc1N(C)CCN(C)C [Example 1, N-(5-((4-(2,3-dihydro-[1,4]oxazino[2,3,4-hi]indol-6-yl)-5-ethylpyrimidin-2-yl)amino)-2-((2-(dimethylamino)ethyl)(methyl)amino)-4-methoxyphenyl)acrylamide] | < 100 nM | A (IC50 value for the indicated mutant below about 100 nM) | A (IC50 value for the indicated mutant below about 100 nM) | < 100 nM | 100 to 500 nM
